Reference: patent US10881642B2, “Autophagy enhancer and use thereof” (Industry-Academic Cooperation Foundation, Yonsei University, priority 2016, dated 2021)

Tested on: HeLa cells
Assay: Autophagic flux in HeLa cells (RFP-LC3/LAMP1, mRFP-GFP-LC3, FYVE-dsRed, immunoblot)
Type: cell-based
Procedure: FIG. 2 indicates the results of the Hela Cells treated with Compound of formula I (hereinafter referred to as MSL) showing the increase of the autophagic flux in the cells treated. FIG. 2A indicates the results of the experiments in which HeLa cells transfected with RFP-LC3 plasmid for 48 hrs were treated with compound MSL of the present disclosure or vehicle control for 1 hr, which were then […] with antibody against LAMP1. The arrows indicate puncta. LC3 or the number of puncta was also indicated as bar graph. FIG. 2B indicates the results of the experiments in which HeLa cells transfected with mRFP-GFP-LC3 plasmid for 48 hrs were treated with compound MSL of the present disclosure or vehicle control for 1 hr, in which autophagosome (yellow puncta) or autophagolysosome (red puncta) were measured using Image J software. The number of puncta was indicated as bar graph. FIG. 2C indicates the results of the experiments in which HeLa cells transfected with FYVE-dsRed plasmid for 48 hrs were treated with compound MSL of the present disclosure or vehicle control for 1 hr, in which the number of FYVE-dsRed vesicles was measured. The measured value were average of the values obtained from at least 3 images. Error bars, S.D. **, P<0.01; ***, P<0.001.
FIG. 10 is the result of the experiments using compound of formula 2 (hereinafter referred to as MSL-7) of the present disclosure as an autophagic enhancer. FIG. 10A is the result of immuneblot using the antibodies indicated using Hela cells treated with MSL or MSL-7. FIG. 10B is the result of measuring the viability of Hela cells treated with vehicle control or various concentration of MSL-7 (50-100 μM) for 48 hrs. FIG. 10C is the result of DAPI stained nuclei of TFEB-GFP HeLa cells which were treated with vehicle control or MSL-7 for 4 hrs. The graph indicates the percentage of TFEB translocated into the nuclei. Error bars, S.D. *, P<0.05; **, P<0.01; ***, P<0.001.
FIG. 12 indicates the improvement of the metabolic profile of HFD-feed mice by MSL-7: (FIG. 12A) Confocal microscopic result of HeLa cells transfected with tandem mRFP-GFP-LC3 and treated with MSL-7 in which red puncta indicates autophagolysosome. (FIG. 12B, 12C) 8 week old male C57BL/6 mice were fed with HFD or normal chow diet (NCD) for 8 weeks, and then 50 mg/kg MSL-7 was administered three times a week for 8 weeks. Non-fasting glucose level (FIG. 12B) and body weight (FIG. 12C) were monitored. (FIG. 12D) IPGTT. (FIG. 12E) AUC curve of (FIG. 12D). (FIG. 12F) ITT. (FIG. 12G) AUC curve of (FIG. 12F).
Screening of autophagy enhancer. […] Luciferase assay. Firefly and Renilla luciferase assays were conducted using the Dual-Luciferase Reporter Assay System (Promega) according to the manufacturer's recommendation. In brief, cells were lysed in 1× lysis buffer and subjected to a single round of freezing/thawing. Firefly luciferase was determined after mixing 5 μl of lysate with 25 μl of Luciferase Assay Reagent II. Renilla luciferase was then determined after further addition of 20 ul of Stop&Glo Reagent. Cell culture and media and drugs treatment. […]

| SMILES | autophagy-enhancing activity (immunoblot, FIG. 10A) | formation of autophagolysosome (mRFP-GFP-LC3, red puncta) | Recruitment of FYVE-dsRed+ vesicle (1 hr) | LC3+ autophagosome colocalization with lysosomal marker LAMP1 (RFP-LC3 transfected, 1 hr) | number of yellow puncta (early autophagic organelles) and red puncta (autolysosomes) (mRFP-GFP-LC3B probe, 1 hr) |
| --- | --- | --- | --- | --- | --- |
| COc1oc(-c2ccccc2Cl)nc1S(=O)(=O)c1ccccc1 [MSL-7, 2-(2-chlorophenyl)-5-methoxy-4-(phenylsulfonyl) oxazole] | definite autophagy-enhancing activity | induced |  |  |  |
| CSc1oc(-c2ccccc2)nc1S(=O)(=O)c1ccc(F)cc1 [MSL] |  |  | increased | positive for the lysosomal markers LAMP1 | increases |
